Test results taken from patent US20090208620A1, “Alimentary Compositions and Methods For Metabolic Modulation” (VDF FUTURECEUTICALS, INC., priority 2003, published 2009).
Values joined by “and” are separate entries in the source; they are usually repeats but may differ in a detail not shown here. Equal entries are not always repeated.

Key:
[1] = system: activated AMPK; assay: Western immunoblot for activated (phospho-Thr172) AMPK in muscle cells; format: cell-based, mouse; conditions: for FOLD AMPK ACTIVATION (OVER CONTROL): cells treated 30 minutes at 37° C
Experimental: (§1) The levels of Glut-4, activated AMPK and activated Akt were measured in mouse muscle cells C2C12 (from ATTC) and in primary culture of human skeletal muscle cells (Clonetics, Inc.) using Western immunoblotting. C2C12 cells were plated at 1.5×1-exp5 cells per mL/well (12-well plate) in standard cell culture medium (DMEM supplemented with 10% fetal bovine serum (FBS), 25 mM glucose, 20 mM Hepes, 4 mM glutamine and 2 mM sodium pyruvate. 48 hrs after the plating, medium was changed to differentiation medium (DMEM supplemented with 5 mM of glucose and 0.5% of FBS) for next 3-4 days to stimulate the formation of myotubes. Three hours before the treatment with selected agents, cells were washed with PBS and transferred to PBS supplemented with 5 mM of glucose.
(§2) Human skeletal muscle cells (HSKM) were cultured in SKBM-2 mediums provided by Clonetics. 48 hrs after cell plating, medium was changed to SKBM medium to stimulate differentiation of the cells to myotubes. When differentiated, the myotubes were transferred to PBS supplemented with 5 mM glucose for three hrs before the treatment.
(§3) Analysis of C2C12 cells for the level of activated AMPK, Akt and the level of GLUT-4 was performed in the same experimental system. The cells were treated for 30 minutes at 37° C. […] Subsequently, 20 μg per sample of sample protein was used for Western analysis using NuPage 10% Bis/Tris gels (Invitrogen). After exposure of membranes to primary and secondary antibodies AMPK, AKT or Glut-4 was detected using ECL-Plus (Amersham) following producer's instruction. Chemilumiscent signals were detected by using ChemiDoc system from Biorad. Intensity of detected signals were analyzed and measured using Quantity One software (Biorad). Alternatively, the level of phosphorylated AMPK was detected using ECL kit from Amersham and short exposure to Kodak films.
(§4) Experimental setup: Cell Culture was followed by treatment with selected contemplated compounds, which was followed by cell lysis and western blot analysis for AMPK, Akt, GLUT4, total AMPK, and total Akt. Signals were acquired accordingly.

[2] = system: activated Akt; assay: Western immunoblot for activated (phospho-Ser473) Akt in muscle cells; format: cell-based, mouse; conditions: for FOLD AKT ACTIVATION (OVER CONTROL): cells treated 30 minutes at 37° C
Experimental: as §1, §2, §3, §4

[3] = system: muscle cells; assay: Total glucose uptake in vitro with fluorescent glucose analog; format: cell-based; conditions: for AVERAGE (N = 3) fluorescence of fluorescent glucose in the cells / FOLD CHANGE IN TOTAL GLUCOSE UPTAKE (OVER CONTROL): 30 minutes at 37 C
Experimental: Total glucose uptake was measured using fluorescent glucose analog from Molecular Probes. Briefly, muscle cells were treated with kinetin, N^2-Acetyl-Guanosine and N^2-Acetyl-Guanine for 30 minutes at 37 C first and subsequently, these cells were exposed to 500 μM of fluorescent glucose analog for 5 minutes at room temperature. Next, cells were washed twice with cold Krebs-Hepes buffered solution and fixed in 70% ethanol in water. Fluorescence of fluorescent glucose in the cells was measured using fluorescent plate reader at 480/530 nm (excitation/emission). […] Table 4 refers to multiple independent experiments where multiple identical concentrations for the same reagents are indicated.

[4] = system: GLUT-4; assay: Western immunoblot for GLUT-4 protein level in C2C12 cells; format: cell-based, mouse
Experimental: as §1
Analysis of C2C12 cells for the level of activated AMPK, Akt and the level of GLUT-4 was performed in the same experimental system. The cells were treated for 30 minutes at 37° C. After the treatment, the cells were washed with ice-cold PBS and lysed with 80 μl of lysis buffer/well (M-PER buffer from Pierce supplemented with protease and phosphatase inhibitor mix (Calbiochem) for 10 minutes on ice. Next, the plates were transferred to −20° C. to improve the lysis of the cells. Next cells were sonicated for 5 minutes and lysate was transferred to Eppendorf tubes and centrifuged at 14,000 rpm for 10 minutes. Supernatants were collected in fresh Eppendorf tubes and kept on ice to measure the amount of total proteins. 3 μl of each lysate was used to measure the protein concentration using standard Bradford method (Biorad). Subsequently, 20 μg per sample of sample protein was used for Western analysis using NuPage 10% Bis/Tris gels (Invitrogen). After exposure of membranes to primary and secondary antibodies AMPK, AKT or Glut-4 was detected using ECL-Plus (Amersham) following producer's instruction. Chemilumiscent signals were detected by using ChemiDoc system from Biorad. Intensity of detected signals were analyzed and measured using Quantity One software (Biorad). Alternatively, the level of phosphorylated AMPK was detected using ECL kit from Amersham and short exposure to Kodak films.
Experimental setup: Cell Culture was followed by treatment with selected contemplated compounds, which was followed by cell lysis and western blot analysis for AMPK, Akt, GLUT4, total AMPK, and total Akt. Signals were acquired accordingly. Primary antibodies used in these studies are the following: Anti-phospho-AMPK (Thr172), mouse, rabbit IgG, from Cell Signaling, #2531; Anti-phospho-Akt (Ser473), mouse, rabbit IgG, Cell Signaling, #9271; Anti-Glut-4, mouse, rabbit IgG, Calbiochem, #400064; Anti-AMPK (total), mouse, rabbit IgG, Cell Signaling, #2532; Anti-Akt (total), mouse, rabbit IgG, Cell Signaling, #9272.
The effects of kinetin, N^2-Acetyl-Guanosine and N^2-Acetyl-Guanine on GLUT-4 protein level in C2C12 cells were investigated following the same experimental design as described for AMPK and AKT. Anti-Glut-4 antibody used in this study was from Calbiochem. […] Table 3 refers to multiple independent experiments where multiple identical concentrations for the same reagents are indicated.

[5] = concentration 0.15 (unit not given)
[6] = concentration 0.3 (unit not given)
[7] = concentration 0.75 (unit not given)
[8] = concentration 1.5 (unit not given)
[9] = concentration 3.75 (unit not given)
[10] = concentration 7.5 (unit not given)

## CC(C)=CCNc1ncnc2nc[nH]c12 [Gamma, Gamma-Dimethylally-6-Aminopurine]
[1]; 0.5 microM
  FOLD AMPK ACTIVATION (OVER CONTROL): 2.82 fold
[1]; 5.0 microM
  FOLD AMPK ACTIVATION (OVER CONTROL): 2.45 fold
[1]; 50.0 microM
  FOLD AMPK ACTIVATION (OVER CONTROL): 2.11 fold
[2]; 0.8 microM
  FOLD AKT ACTIVATION (OVER CONTROL): 1.90 fold and 3.56 fold
[2]; 2.0 microM
  FOLD AKT ACTIVATION (OVER CONTROL): 1.32 fold

## CC(=O)Nc1nc2c(ncn2[C@@H]2O[C@H](CO)[C@@H](O)[C@H]2O)c(=O)[nH]1 [N^2-Acetyl-Guanosine]
[3]
  effect on glucose uptake in muscle cells in vitro (in words): potently enhance glucose uptake in muscle cells in vitro
[3]; [5]
  AVERAGE (N = 3) fluorescence of fluorescent glucose in the cells: 90.5 +/− 1.7
  FOLD CHANGE IN TOTAL GLUCOSE UPTAKE (OVER CONTROL): 1.94 fold
[3]; [6]
  AVERAGE (N = 3) fluorescence of fluorescent glucose in the cells: 44.1 +/− 0.7
  FOLD CHANGE IN TOTAL GLUCOSE UPTAKE (OVER CONTROL): 2.17 fold
[3]; [7]
  AVERAGE (N = 3) fluorescence of fluorescent glucose in the cells: 109.5 +/− 2.6
  FOLD CHANGE IN TOTAL GLUCOSE UPTAKE (OVER CONTROL): 2.35 fold
[3]; [8]
  AVERAGE (N = 3) fluorescence of fluorescent glucose in the cells: 54.3 +/− 0.9
  FOLD CHANGE IN TOTAL GLUCOSE UPTAKE (OVER CONTROL): 2.67 fold
[3]; [9]
  AVERAGE (N = 3) fluorescence of fluorescent glucose in the cells: 148.7 +/− 8.5
  FOLD CHANGE IN TOTAL GLUCOSE UPTAKE (OVER CONTROL): 3.18 fold
[3]; [10]
  AVERAGE (N = 3) fluorescence of fluorescent glucose in the cells: 61.7 +/− 1.3
  FOLD CHANGE IN TOTAL GLUCOSE UPTAKE (OVER CONTROL): 3.03 fold
[1]; 0.3 microM
  FOLD AMPK ACTIVATION (OVER CONTROL): 3.75 fold
[1]; 0.8 microM
  FOLD AMPK ACTIVATION (OVER CONTROL): 2.20 fold
[1]; 1.5 microM
  FOLD AMPK ACTIVATION (OVER CONTROL): 4.28 fold
[1]; 2.0 microM
  FOLD AMPK ACTIVATION (OVER CONTROL): 2.20 fold
[1]; 7.5 microM
  FOLD AMPK ACTIVATION (OVER CONTROL): 1.71 fold
[1]; 37.5 microM
  FOLD AMPK ACTIVATION (OVER CONTROL): 2.28 fold
[1]; no concentration stated
  effect on AMPK activity (in words): potent activators of AMPK
[2]; 0.1 microM
  FOLD AKT ACTIVATION (OVER CONTROL): 2.57 fold
[2]; 0.3 microM
  FOLD AKT ACTIVATION (OVER CONTROL): 1.92 fold and 2.57 fold
[2]; 0.8 microM
  FOLD AKT ACTIVATION (OVER CONTROL): 1.75 fold and 2.95 fold
[2]; 1.5 microM
  FOLD AKT ACTIVATION (OVER CONTROL): 1.55 fold
[2]; 2.0 microM
  FOLD AKT ACTIVATION (OVER CONTROL): 2.17 fold
[2]; 5.0 microM
  FOLD AKT ACTIVATION (OVER CONTROL): 1.23 fold
[2]; 7.5 microM
  FOLD AKT ACTIVATION (OVER CONTROL): 1.68 fold
[2]; no concentration stated
  effect on Akt activity (in words): potent activators of AMPK as well as Akt
[4]
  effect on GLUT-4 protein level (in words): potently increase GLUT-4 protein level
[4]; 0.3 microM
  FOLD CHANGE IN GLUT-4 LEVEL (OVER CONTROL): 1.21 fold
[4]; 1.5 microM
  FOLD CHANGE IN GLUT-4 LEVEL (OVER CONTROL): 1.74 fold
[4]; 7.5 microM
  FOLD CHANGE IN GLUT-4 LEVEL (OVER CONTROL): 3.14 fold
[4]; 37.5 microM
  FOLD CHANGE IN GLUT-4 LEVEL (OVER CONTROL): 3.03 fold

## Nc1ncnc2c1ncn2[C@@H]1O[C@H](CO)[C@@H](O)[C@H]1O [Adenosine]
[1]; 2.5 microM
  FOLD AMPK ACTIVATION (OVER CONTROL): 1.87 fold
[1]; 5.0 microM
  FOLD AMPK ACTIVATION (OVER CONTROL): 1.64 fold
[1]; 12.5 microM
  FOLD AMPK ACTIVATION (OVER CONTROL): 1.83 fold

## CN(CCOc1ccc(CC2SC(=O)NC2=O)cc1)c1ccccn1 (stereo not shown) [Rosiglitazone, reference compound]
[1]; 3.0 microM
  FOLD AMPK ACTIVATION (OVER CONTROL): 3.50 fold
[2]; 1.0 microM
  FOLD AKT ACTIVATION (OVER CONTROL): 2.83 fold
[2]; 9.0 microM
  FOLD AKT ACTIVATION (OVER CONTROL): 1.78 fold
[2]; 27.0 microM
  FOLD AKT ACTIVATION (OVER CONTROL): 0.71 fold
[4]; 9.0 microM
  FOLD CHANGE IN GLUT-4 LEVEL (OVER CONTROL): 3.61 fold
[4]; 27.0 microM
  FOLD CHANGE IN GLUT-4 LEVEL (OVER CONTROL): 3.19 fold

## NC(=O)c1ncn([C@@H]2O[C@H](CO)[C@@H](O)[C@H]2O)c1N [AICAR, reference compound]
[2]; 50.0 microM
  FOLD AKT ACTIVATION (OVER CONTROL): 2.20 fold
[2]; 500.0 microM
  FOLD AKT ACTIVATION (OVER CONTROL): 5.45 fold

## CC(=O)Nc1ncnc2c1ncn2[C@@H]1O[C@H](CO)[C@@H](O)[C@H]1O [N^6-Acetyl-Adenosine]
[1]; 2.5 microM
  FOLD AMPK ACTIVATION (OVER CONTROL): 1.08 fold
[1]; 5.0 microM
  FOLD AMPK ACTIVATION (OVER CONTROL): 2.41 fold
[1]; 12.5 microM
  FOLD AMPK ACTIVATION (OVER CONTROL): 2.18 fold

## CN(C)C(=N)N=C(N)N [Metformin, reference compound]
[1]; 2.0 milliM
  FOLD AMPK ACTIVATION (OVER CONTROL): 1.42 fold
[2]; 2.0 milliM
  FOLD AKT ACTIVATION (OVER CONTROL): 2.70 fold
[4]; 2000 microM
  FOLD CHANGE IN GLUT-4 LEVEL (OVER CONTROL): 1.50 fold
